Experimental data as given in patent publication US20100004257A1 (University of South Floria, priority 2007, published 2010).
Where two headings read alike, the source gives them in different places.

How the values were obtained:
[1] = tested on: pFAK, pSTAT3, pAkt, pERK in A549 cells; test: Western analysis of pFAK, pSTAT3, pAkt, pERK; assay type: cell-based, Human; conditions: 500 nmol/L, 3 hours
[2] = tested on: pAkt, pSTAT3, cleaved PARP in H1650 cells; test: Western analysis of pAkt, pSTAT3 and cleaved PARP; assay type: cell-based, Human; conditions: 24 hours; for pSTAT3: H1650, any growth conditions
[3] = tested on: pAkt, cleaved PARP in PC9 cells; test: Western analysis of pAkt, pSTAT3 and cleaved PARP; assay type: cell-based, Human; conditions: 24 hours; for PARP cleavage: gefitinib at 50 nmol/L, dasatinib at increasing concentrations
H441 cells [4] = test: Combination effect in cell viability assays, median dose effect method; assay type: cell-based, Human; conditions: dose range used
Method: Combination effects were evaluated by median dose effect method.

[5] = tested on: pTyr416 Src (pSrc) family in H1975 cells; test: Western analysis of Src phosphorylation status; assay type: cell-based, Human; conditions: 24 hours, dasatinib at 50 nmol/L
H2122 cells = test: MTT assay after 120 hours, IC50; assay type: cell-based; conditions: Homo sapiens, NCI-H2122, 120 h
Excerpt: (§1) Cell lines and cell culture. Human lung cancer cell lines were maintained in RPMI 1640 plus 5% bovine calf serum (BCS). H3255 cells were provided by Dr. Pasi Janne (Dana-Farber, Boston, Mass.) and grown in ACL-4 medium (12). HCC827 cells were provided by Dr. Jon Kurie (M. D. Anderson, Houston, Tex.). PC9 cells were provided by Dr. Matthew Lazzara (Massachusetts Institute of Technology, Boston, Mass.). […]. Gefitinib was provided by AstraZeneca (Wilmington, Del.) and dasatinib by Bristol-Myers Squibb Oncology (Princeton, N.J.). For cell transfection experiments, 2×10^6 HEK293 cells in a 6-cm dish maintained in DMEM/10% BCS were transfected with 1 Ag plasmid DNA for 3 hours using LipofectAMINE 2000 (Invitrogen, Carlsbad, Calif.) and then allowed to go 24 hours before being treated with inhibitors.
(§2) Cytotoxicity and apoptosis assays. Cytotoxicity assays [3-(4,5-dimethylthiazol-2-yl)-2,5-diphenyltetrazolium bromide] were done according to the manufacturer's recommendations (Roche, Indianapolis, Ind.). […] Data presented represent three separate experiments with eight data points per concentration per experiment. Apoptosis [PharMingen (San Diego, Calif.) Apo-BrdU kit] and cell cycle changes (propidium iodide staining and flow cytometry) were assayed as before (13). Data are expressed as mean±SD.

H226 cells = test: MTT assay after 120 hours, IC50; assay type: cell-based; conditions: Homo sapiens, NCI-H226, 120 h
Excerpt: as §1, §2

H441 cells [6] = test: MTT assay after 120 hours, IC50; assay type: cell-based; conditions: Homo sapiens, NCI-H441, 120 h
Excerpt: as §1, §2

H23 cells = test: MTT assay after 120 hours, IC50; assay type: cell-based; conditions: Homo sapiens, NCI-H23, 120 h
Excerpt: as §1, §2

H460 cells = test: MTT assay after 120 hours, IC50; assay type: cell-based; conditions: Homo sapiens, NCI-H460, 120 h
Excerpt: as §1, §2

[7] = tested on: pAkt, pSTAT3, cleaved PARP in H1975 cells; test: Western analysis of pAkt, pSTAT3 and cleaved PARP; assay type: cell-based, Human; conditions: 24 hours
H358 cells [8] = conditions: 24 hours, gefitinib 1 μmol/L, dasatinib 500 nmol/L, or the combination
H1299 cells = test: MTT assay after 120 hours, IC50; assay type: cell-based, Human; conditions: for IC50: Homo sapiens, NCI-H1299, 120 h
Excerpt: as §1, §2

H322 cells = test: MTT assay after 120 hours, IC50; assay type: cell-based, Human; conditions: for IC50: Homo sapiens, NCI-H322, 120 h
Excerpt: as §1, §2

H292 cells = test: MTT assay after 120 hours, IC50; assay type: cell-based, Human; conditions: for IC50: Homo sapiens, NCI-H292, 120 h
Excerpt: as §1, §2

H358 cells [9] = test: MTT assay after 120 hours, IC50; assay type: cell-based, Human; conditions: for IC50: Homo sapiens, NCI-H358, 120 h
Excerpt: as §1, §2

H157 cells = test: MTT assay after 120 hours, IC50; assay type: cell-based, Human; conditions: for IC50: Homo sapiens, NCI-H157, 120 h
Excerpt: as §1, §2

H1648 cells = test: MTT assay after 120 hours, IC50; assay type: cell-based, Human; conditions: for IC50: Homo sapiens, NCI-H1648, 120 h
Excerpt: as §1, §2

[10] = tested on: pAkt, pSTAT3, cleaved PARP in H3255 cells; test: Western analysis of pAkt, pSTAT3 and cleaved PARP; assay type: cell-based, Human; conditions: increasing concentrations, 24 hours
[11] = tested on: pTyr416 Src (pSrc) family in H1650 cells; test: Western analysis of Src phosphorylation status; assay type: cell-based, Human
[12] = tested on: pTyr416 Src (pSrc) family in PC9 cells; test: Western analysis of Src phosphorylation status; assay type: cell-based, Human; conditions: 24 hours
A549 cells [13] = test: Cell cycle profile and cyclin D/p27 Western analysis; assay type: cell-based, Human; conditions: 24 hours, gefitinib 1 μmol/L, dasatinib 500 nmol/L; for cell cycle profile: FIG. 12; for cyclin D3 and p27 proteins: FIG. 13
[14] = dosing for CML; ODAC briefing document; cited from earlier work
H1650 cells = test: Cell viability, dasatinib compared with gefitinib, 72 hours; assay type: cell-based, Human; conditions: H1650 grown in 5% BCS, FIG. 6
Method: FIG. 6. presents a series of four graphs, with each graph representative of a different cell line as indicated at the top of the graph.
Cytotoxicity and apoptosis assays. Cytotoxicity assays [3-(4,5-dimethylthiazol-2-yl)-2,5-diphenyltetrazolium bromide] were done according to the manufacturer's recommendations (Roche, Indianapolis, Ind.). Cells (5×10^3) in medium with 5% BCS were placed into single wells in a 96-well plate and exposed to indicated agents, and viability was assessed after 72 hours. Data presented represent three separate experiments with eight data points per concentration per experiment. Apoptosis [PharMingen (San Diego, Calif.) Apo-BrdU kit] and cell cycle changes (propidium iodide staining and flow cytometry) were assayed as before (13). Data are expressed as mean±SD.

[15] = tested on: imatinib-resistant BCR-ABL mutants; conditions: number of mutants / mutants tested; cited from earlier work
[16] = tested on: lung cancer cells with EGFR mutation that are resistant to EGFR TKI; test: Apoptosis and cell cycle in cells with acquired resistance to erlotinib; assay type: cell-based, Human; conditions: EGFR mutant cells resistant to EGFR TKI
A549 cells [17] = test: MTT assay after 120 hours, IC50; assay type: cell-based; conditions: Homo sapiens, A549, 120 h, read-out: EGFR TKI IC50 (Nm)
Excerpt: Cell lines and cell culture. […] Gefitinib was provided by AstraZeneca (Wilmington, Del.) and dasatinib by Bristol-Myers Squibb Oncology (Princeton, N.J.).
Cytotoxicity and apoptosis assays. Cytotoxicity assays [3-(4,5-dimethylthiazol-2-yl)-2,5-diphenyltetrazolium bromide] were done according to the manufacturer's recommendations (Roche, Indianapolis, Ind.). Cells (5×10^3) in medium with 5% BCS were placed into single wells in a 96-well plate and exposed to indicated agents, and viability was assessed after 72 hours. Data presented represent three separate experiments with eight data points per concentration per experiment. […] Data are expressed as mean±SD.

[18] = H1650 grown in 5% BCS, dasatinib at 50 nmol/L
[19] = H1650 in low serum with exogenous EGF, 50 nmol/L

Cc1nc(Nc2ncc(C(=O)Nc3c(C)cccc3Cl)s2)cc(N2CCN(CCO)CC2)n1 [dasatinib, N-(2-chloro-6-methylphenyl)-2-[[6-[4-[(2-hydroxyethyl)-1-pipperazinyl]-2-methyl-4-pyrimidinyl]amino]-5-thiazolecarboxamide, monohydrate]
pFAK [1]: reduction in pFAK
pSTAT3, pAkt, or pERK [1]: no significant reductions
pSTAT3 [2]: No effect
PARP cleavage ([2]; H1650 grown in 5% BCS): induction of PARP cleavage
pAkt [2, 18]: inhibits pAkt
pAkt [2, 19]: inhibit pAkt
degree of PARP cleavage, dasatinib versus gefitinib ([2]; H1650 in low serum with exogenous EGF): degree of PARP cleavage is higher
PARP cleavage [3]: associated changes in PARP cleavage
pAkt ([3]; increasing concentrations): dose-dependent inhibition of pAkt
effect on cell viability (H441 cells [4]): no effect
pSrc [5]: completely inhibits the low levels of pSrc
IC50 (H2122 cells; read-out: Dasatinib IC50 (Nm)): 486 nM
IC50 (H226 cells; read-out: Dasatinib IC50 (Nm)): 709 nM
IC50 (H441 cells [6]; read-out: Dasatinib IC50 (Nm)): > 2000 nM
IC50 (H23 cells; read-out: Dasatinib IC50 (Nm)): > 2000 nM
IC50 (H460 cells; read-out: Dasatinib IC50 (Nm)): > 2000 nM
PARP cleavage [7]: no PARP cleavage
pAkt or pSTAT3 [7]: neither gefitinib nor dasatinib affects
G1 cell cycle arrest (H358 cells [8]): G1 cell cycle arrest to the same extent
cyclins D1 and D3 and p27 protein levels (H358 cells [8]): reduced cyclins D1 and D3 and increased p27 protein levels
SRC Sensitivity (H1299 cells; H1299, Large Cell, EGFR WT, MTT 120 hours): S (SRC TKI Sensitivity Definition: IC50 less than 100 nM)
IC50 (H1299 cells; read-out: Dasatinib IC50 (Nm)): 31.6 nM
SRC Sensitivity (H322 cells; H322, BAC, EGFR WT, MTT 120 hours): S (SRC TKI Sensitivity Definition: IC50 less than 100 nM)
IC50 (H322 cells; read-out: Dasatinib IC50 (Nm)): 11.6 nM
SRC Sensitivity (H292 cells; H292, Squamous, EGFR WT, MTT 120 hours): S (SRC TKI Sensitivity Definition: IC50 less than 100 nM)
IC50 (H292 cells; read-out: Dasatinib IC50 (Nm)): 28.4 nM
SRC Sensitivity (H358 cells [9]; H358, BAC, EGFR WT, MTT 120 hours): S (SRC TKI Sensitivity Definition: IC50 less than 100 nM)
IC50 (H358 cells [9]; read-out: Dasatinib IC50 (Nm)): 27.4 nM
SRC Sensitivity (H157 cells; H157, Squamous, EGFR WT, MTT 120 hours): S (SRC TKI Sensitivity Definition: IC50 less than 100 nM)
IC50 (H157 cells; read-out: Dasatinib IC50 (Nm)): 48.9 nM
SRC Sensitivity (H1648 cells; H1648, Adeno, EGFR WT, MTT 120 hours): S (SRC TKI Sensitivity Definition: IC50 less than 100 nM)
IC50 (H1648 cells; read-out: Dasatinib IC50 (Nm)): 20.9 nM
PARP cleavage [10]: increase in PARP cleavage
pAkt and pSTAT3 [10]: concentration-dependent decrease of both pAkt and pSTAT3
autophosphorylation of Tyr416 on Src family members (pSrc) ([11]; H1650 cells, 50 nmol/L, monohydrate): completely inhibits pSrc
pSrc ([12]; 50 nmol/L): inhibits pSrc
cell cycle profile (A549 cells [13]): cell cycle arrest characterized by increased G1 fraction and reduced S-phase fraction
cyclin D3 and p27 proteins (A549 cells [13]): decline in cyclin D3 and an increase in p27
Cmax [14]: 60 to 120 nM
cell viability, dasatinib versus gefitinib (H1650 cells): inhibited cell viability more than gefitinib

COc1cc2ncnc(Nc3ccc(F)c(Cl)c3)c2cc1OCCCN1CCOCC1 [gefitinib]
pSTAT3 [2]: No effect
PARP cleavage ([2]; H1650 grown in 5% BCS): degree of PARP cleavage is less
pAkt [2, 18]: minimal effect on pAkt
pAkt [2, 19]: inhibit pAkt
pAkt ([3]; 50 nmol/L): completely inhibits pAkt
PARP cleavage [3]: induces PARP cleavage
pSrc [5]: minimal changes
PARP cleavage [7]: no PARP cleavage
pAkt or pSTAT3 [7]: neither gefitinib nor dasatinib affects
G1 cell cycle arrest (H358 cells [8]): G1 cell cycle arrest to the same extent
cyclins D1 and D3 and p27 protein levels (H358 cells [8]): reduced cyclins D1 and D3 and increased p27 protein levels
pSrc ([11]; H1650, increasing concentrations, 24 hours): incomplete
pSrc ([12]; 250 nmol/L): decrease in pSrc
pSrc ([12]; 1 μmol/L): incomplete
cell cycle profile (A549 cells [13]): no effect
cyclin D3 and p27 proteins (A549 cells [13]): no changes

Cc1cn(-c2cc(NC(=O)c3ccc(C)c(Nc4nccc(-c5cccnc5)n4)c3)cc(C(F)(F)F)c2)cn1 [AMN107]
imatinib-resistant BCR-ABL mutants against which significantly active [15]: 32/33

C#Cc1cccc(Nc2ncnc3cc(OCCOC)c(OCCOC)cc23)c1 [erlotinib]
cell cycle [16]: no observable effect on cell cycle
effect on cell viability (H441 cells [4]): no effect
IC50 (H2122 cells; read-out: EGFR TKI IC50 (Nm)): 748 nM
IC50 (H226 cells; read-out: EGFR TKI IC50 (Nm)): > 2000 nM
IC50 (H441 cells [6]; read-out: EGFR TKI IC50 (Nm)): > 2000 nM
IC50 (H23 cells; read-out: EGFR TKI IC50 (Nm)): > 2000 nM
IC50 (H460 cells; read-out: EGFR TKI IC50 (Nm)): > 2000 nM
IC50 (H1299 cells; read-out: EGFR TKI IC50 (Nm)): > 2000 nM
IC50 (H322 cells; read-out: EGFR TKI IC50 (Nm)): 135 nM
EGFR TKI Sensitivity (H322 cells; erlotinib, H322, BAC, EGFR WT, MTT 120 hours): S (EGFR TKI Sensitivity Definition: Reported IC50 < or = 1 μM)
IC50 (H292 cells; read-out: EGFR TKI IC50 (Nm)): 63.4 nM
EGFR TKI Sensitivity (H292 cells; erlotinib, H292, Squamous, EGFR WT, MTT 120 hours): S (EGFR TKI Sensitivity Definition: Reported IC50 < or = 1 μM)
IC50 (H358 cells [9]; read-out: EGFR TKI IC50 (Nm)): 199 nM
EGFR TKI Sensitivity (H358 cells [9]; erlotinib, H358, BAC, EGFR WT, MTT 120 hours): S (EGFR TKI Sensitivity Definition: Reported IC50 < or = 1 μM)
IC50 (H157 cells; read-out: EGFR TKI IC50 (Nm)): > 2000 nM
IC50 (H1648 cells; read-out: EGFR TKI IC50 (Nm)): 75.8 nM
EGFR TKI Sensitivity (H1648 cells; erlotinib, H1648, Adeno, EGFR WT, MTT 120 hours): S (EGFR TKI Sensitivity Definition: Reported IC50 < or = 1 μM)
IC50 (A549 cells [17]): > 2000 nM
